Reference: patent US9744203B2, “Application of composition in preparing health care product or medicine for preventing and treating leukopenia caused by radiotherapy and chemotherapy” (JIANGZHONG PHARMACEUTICAL CO., LTD., priority 2012, dated 2017)
“And” between values parts separate entries of the source, which are not always exact repeats. Identical values can stand only once.

Experiments:
Type in all cases: in vivo
[1] = test system: leucocyte reduction in mice induced by X-ray radiation; test: Bone marrow nucleated cell count, mice after X-ray radiation; conditions: X-ray radiation model; one femur; positive control batyl alcohol 100 mg/kg intragastric
[2] = test system: leucocyte reduction in mice induced by cyclophosphamide; test: Peripheral leucocyte assay, leucocyte reduction in mice induced by cyclophosphamide; conditions: cyclophosphamide model; positive control batyl alcohol 100 mg/kg intragastric, 15 days
Procedure: (§1) Mice were randomly divided into 6 groups with 10 animals per group, i.e., normal control group, model control group, positive control group, and groups on low, medium and high doses of Composition 1. The low-, medium- and high-dose groups were intragastrically given Composition 1 at a dose of 2.0 g crude drug/kg, 4.0 g crude drug/kg, and 12.0 g crude drug/kg, respectively; the positive control group was intragastrically given batyl alcohol (100 mg/kg) at a dose of 0.1 ml/10 g body weight; the normal control group and the model control group were intragastrically given an equivalent volume of distilled water; and the dosage regime lasted for 15 days with one dose per day. From day 9 of intragastrical administration, all mice in each group, except the normal control group, were given cyclophosphamide at a dose of 40 mg/kg each day via subcutaneous injection for 3 consecutive days. One hour after the intragastrical administration on day 15, blood and femurs were harvested for tests.
40 μL blood was drawn from the tail vein of the mice and transferred into a EDTA-K2 anticoagulative tube, into which 160 μL dilution liquid was added, and then assayed in an automatic blood cell analyzer.
Mice were randomly divided into 6 groups with 10 animals per group, i.e., normal control group, model control group, positive control group, and groups on low, medium and high doses of Composition 2. […]

[3] = test system: leucocyte reduction in mice induced by cyclophosphamide; test: Bone marrow DNA content determination, mice injected with cyclophosphamide; conditions: cyclophosphamide model; absorbance at 268 nm, day 15; positive control batyl alcohol 100 mg/kg intragastric
Procedure: as §1
A 7 mm section was dissected from the middle of the right femur. The whole bone marrow was flushed into a centrifuge tube with a 10 mL solution of 0.005 mol/L CaCl2, placed in a refrigerator at 4° C. for 30 min, and then centrifuged at 2500 r/min for 15 min. […] The supernatant was removed and its absorbance at 268 nm was measured.

[4] = test system: leucocyte reduction in mice induced by cyclophosphamide; test: Bone marrow nucleated cell count, mice injected with cyclophosphamide; conditions: cyclophosphamide model; one femur, day 15; positive control batyl alcohol 100 mg/kg intragastric
Procedure: as §1
(§2) Mice were sacrificed by cervical dislocation. The left femur was removed and flushed with a 10 ml solution of 3% acetic acid to obtain the cells in the bone marrow. The number of cells in 4 large grids on a hemacytometer was counted, and the number was multiplied by 2.5×10^4 to obtain the BMC in one femur.

[5] = test system: leucocyte reduction in mice induced by cytarabine; test: Peripheral leucocyte assay, leucocyte reduction in mice induced by cytarabine; conditions: cytarabine model; positive control batyl alcohol 100 mg/kg intragastric, 15 days
Procedure: [Worded in the source for another target; used here, by the source, with some conditions changed.] as §1
(§3) 40 μL blood was drawn from the tail vein of the mice and transferred into a EDTA-K2 anticoagulative tube, into which 160 μL dilution liquid was added, and then assayed in an automatic blood cell analyzer. […]

[6] = test system: leucocyte reduction in mice induced by X-ray radiation; test: Peripheral leucocyte assay, leucocyte reduction in mice induced by X-ray radiation; conditions: X-ray radiation model; positive control batyl alcohol 100 mg/kg intragastric
Procedure: [Worded in the source for another target; used here, by the source, with some conditions changed.] as §1, §3

[7] = test system: leucocyte reduction in mice induced by cytarabine; test: Bone marrow nucleated cell count, mice injected with cytarabine; conditions: cytarabine model; one femur, day 15; positive control batyl alcohol 100 mg/kg intragastric
Procedure: [Worded in the source for another target; used here, by the source, with some conditions changed.] as §1
as §2, with “femur. […]” for “femur.”

CCCCCCCCCCCCCCCCCCOCC(O)CO (stereo not shown) [Positive control, batyl alcohol]
Bone marrow BCM [1]: 13.20 ± 2.02 ×10^6 and 12.43 ± 2.29 ×10^6 and 13.69 ± 2.65 ×10^6 and 14.57 ± 2.57 ×10^6 and 13.92 ± 2.57 ×10^6 and 14.78 ± 2.44 ×10^6
WBC after modeling [2]: 3.55 ± 1.21 ×10^9 and 4.64 ± 1.30 ×10^9 and 5.25 ± 1.30 ×10^9 and 6.13 ± 1.47 ×10^9 and 5.73 ± 1.60 ×10^9 and 6.25 ± 1.76 ×10^9
WBC after treatment [2]: 6.20 ± 1.82 ×10^9 and 7.34 ± 1.59 ×10^9 and 7.56 ± 1.80 ×10^9 and 8.23 ± 1.54 ×10^9 and 7.89 ± 1.60 ×10^9 and 8.96 ± 1.93 ×10^9
Bone marrow DNA [3]: 0.610 ± 0.138 and 0.629 ± 0.150 and 0.625 ± 0.162 and 0.730 ± 0.150 and 0.755 ± 0.128 and 0.958 ± 0.138
Bone marrow BCM [4]: 13.44 ± 2.36 ×10^6 and 11.87 ± 2.08 ×10^6 and 13.65 ± 2.42 ×10^6 and 14.73 ± 2.04 ×10^6 and 14.86 ± 2.28 ×10^6 and 15.72 ± 2.34 ×10^6
WBC after modeling [5]: 3.80 ± 1.03 ×10^9 and 4.67 ± 1.27 ×10^9 and 4.90 ± 1.43 ×10^9 and 4.16 ± 1.09 ×10^9 and 4.53 ± 1.28 ×10^9 and 6.62 ± 1.52 ×10^9
WBC after treatment [5]: 6.54 ± 1.93 ×10^9 and 6.85 ± 1.70 ×10^9 and 7.10 ± 1.88 ×10^9 and 7.26 ± 1.90 ×10^9 and 7.54 ± 1.62 ×10^9 and 8.52 ± 1.55 ×10^9
WBC on day 8 after treatment [6]: 3.66 ± 1.05 ×10^9 and 5.60 ± 1.28 ×10^9 and 5.87 ± 1.62 ×10^9 and 5.80 ± 1.44 ×10^9 and 5.32 ± 1.54 ×10^9 and 5.53 ± 1.28 ×10^9
WBC on day 15 after treatment [6]: 6.92 ± 1.98 ×10^9 and 7.04 ± 1.87 ×10^9 and 7.49 ± 1.52 ×10^9 and 7.88 ± 1.61 ×10^9 and 7.80 ± 1.43 ×10^9 and 8.03 ± 1.59 ×10^9
Bone marrow BCM [7]: 12.53 ± 2.24 ×10^6 and 13.95 ± 2.77 ×10^6 and 13.64 ± 2.19 ×10^6 and 14.32 ± 2.65 ×10^6 and 13.25 ± 2.31 ×10^6 and 13.58 ± 2.17 ×10^6
